What is called Ki is a measure of affinity in units of concentration, obtained from inhibition or displacement. A higher Ki goes with lower affinity.

The structures appear in SMILES notation.

The values that follow come from patent US8629137B2, “CGRP antagonists” (Boehringer Ingelheim International GmbH, priority 2007, dated 2014).

The target in this assay is T1, human CGRP receptor (Homo sapiens, UniProt O60894+Q16602).
T1 construct: SK-N-MC cells are cultivated in “Dulbecco's modified Eagle medium”; endogenous in cells; host or cells: SK-N-MC cells (membrane homogenate)
T1 sequence (Q16602 23-461): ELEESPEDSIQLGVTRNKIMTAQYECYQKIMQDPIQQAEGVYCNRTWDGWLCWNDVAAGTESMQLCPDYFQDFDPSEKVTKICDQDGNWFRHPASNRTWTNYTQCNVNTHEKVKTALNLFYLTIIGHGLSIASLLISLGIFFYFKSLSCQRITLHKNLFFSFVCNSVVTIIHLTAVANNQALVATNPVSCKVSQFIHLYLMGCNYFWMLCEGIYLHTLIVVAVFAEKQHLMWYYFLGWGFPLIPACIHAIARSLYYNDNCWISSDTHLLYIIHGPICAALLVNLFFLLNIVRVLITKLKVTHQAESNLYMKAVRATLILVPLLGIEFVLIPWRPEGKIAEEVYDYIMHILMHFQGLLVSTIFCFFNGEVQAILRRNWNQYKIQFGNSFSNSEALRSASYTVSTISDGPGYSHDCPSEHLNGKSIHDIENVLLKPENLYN
T1 sequence (O60894 27-148): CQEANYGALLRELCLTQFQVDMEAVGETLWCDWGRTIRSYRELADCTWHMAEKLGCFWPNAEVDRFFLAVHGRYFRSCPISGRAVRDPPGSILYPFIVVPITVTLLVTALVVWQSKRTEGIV
In words: Binding studies with SK-N-MC cells (expressing the human CGRP receptor). Particulars: SK-N-MC cell membranes, displacement of 125I-iodotyrosyl-CGRP. As for the experimental part: A. Binding Studies with SK-N-MC Cells (Expressing the Human CGRP Receptor)
SK-N-MC cells are cultivated in “Dulbecco's modified Eagle medium”. The medium is removed from confluent cultures. The cells are washed twice with PBS buffer (Gibco 041-04190 M), detached by the addition of PBS buffer mixed with 0.02% EDTA, and isolated by centrifuging. After resuspension in 20 ml of “Balanced Salts Solution” [BSS (in mM): NaCl 120, KCl 5.4, NaHCO3 16.2, MgSO4 0.8, NaHPO4 1.0, CaCl2 1.8, D-glucose 5.5, HEPES 30, pH 7.40] the cells are centrifuged twice at 100×g and resuspended in BSS. After the number of cells has been determined, the cells are homogenised using an Ultra-Turrax and centrifuged for 10 minutes at 3000×g. The supernatant is discarded and the pellet is recentrifuged in Tris buffer (10 mM Tris, 50 mM NaCl, 5 mM MgCl2, 1 mM EDTA, pH 7.40) enriched with 1% bovine serum albumin and 0.1% bacitracin, and resuspended (1 ml/1000000 cells). The homogenised product is frozen at −80° C. The membrane preparations are stable for more than 6 weeks under these conditions.
After thawing, the homogenised product is diluted 1:10 with assay buffer (50 mM Tris, 150 mM NaCl, 5 mM MgCl2, 1 mM EDTA, pH 7.40) and homogenised for 30 seconds with an Ultra-Turrax. 230 μl of the homogenised product are incubated for 180 minutes at ambient temperature with 50 pM ^125I-iodotyrosyl-Calcitonin-Gene-Related Peptide (Amersham) and increasing concentrations of the test substances in a total volume of 250 μl. The incubation is ended by rapid filtration through GF/B glass fibre filters treated with polyethyleneimine (0.1%) using a cell harvester. The protein-bound radioactivity is measured using a gamma counter. Non-specific binding is defined as the bound radioactivity after the presence of 1 μM human CGRP-alpha during incubation.
The concentration binding curves are analysed using computer-aided non-linear curve fitting.
On the technique in general: Displacement assays read how much labelled ligand stays bound in the presence of the test substance.

In the case of `Cc1cc(C(=O)c2cc(N3CCC(n4c(=O)[nH]c5ncccc54)CC3)ncn2)cc2oc(=O)[nH]c12` [(1)], the inhibition constant (Ki) turned out to be 0.4 nM.

`Cc1cc(C(=O)c2cc(N3CCC(n4nc(-c5ccccc5)[nH]c4=O)CC3)ncn2)cc2oc(=O)[nH]c12` [(3)] returned a Ki of 4 nM. In turn, `Cc1cc(C(=O)c2cc(N3CCC(n4c(=O)[nH]c5c6ccccc6ncc54)CC3)ncn2)cc2oc(=O)[nH]c12` [(4)] returned a Ki of 1 nM.
